Assay results taken from US12564580B2, “Mitochondria-targeted isoketal/isolevuglandin scavengers and uses thereof” (Vanderbilt University, priority 2020, dated 2026).

Legend:
[1] = tested on: LPS-injected C57BL/6J mice; experiment: Survival in LPS model of sepsis; format: in vivo, mouse
Excerpt: All experimental procedures were approved by Vanderbilt and Mercer Institutional Animal Care and Use Committees. The use of LPS is well-established model of bacterial sepsis in rodents (1-3). The concentrations of LPS that can be used to induce sepsis in mice depend on many factors (source of LPS, age/size, and strains of animals, desired time of response, target of interest, etc.) and may vary between different manufactures. To test the protective properties of mito2HOBA, the present inventors used LPS from E. coli O111:B4 (Sigma L8274). […] The same lot of LPS was used throughout entire study.

mPTP = format: in vivo; settings: treatment of Ang II-infused mice with mito2HOBA
[2] = Mass spectrometric analysis of mitochondria from mice given mito2HOBA in drinking water; format: in vivo
Excerpt: (§1) Mito2HOBA is a water-soluble compound which can be supplied in the media and provided to animals in the drinking water.

kidney mitochondria = experiment: Respiration of kidney mitochondria from angiotensin II-infused mice (respiratory control ratio); format: in vivo, mouse; settings: Ang II plus mito2HOBA
Protocol: FIGS. 13A-B show mito2HOBA reduces mPTP opening and prevents mitochondrial dysfunc¬tion. C57B1/6J mice were infused with Ang II ([…]) and mito2HOBA in the drinking water (0.1 g/L). Following 14 days of Ang II infusion the animals were sacrificed and kidneys were isolated for mitochondrial studies. Addition of CaCl2 to mitochondria above Ca2+ retention capacity led to mPTP opening and mitochondria swelling. 71 Mitochondria isolated from Ang II-infused mice had significant reduction in Ca2+ capacity due to increased mPTP opening and CypD inhibitor Cyclosporine A (CsA) rescued Ca2+ retention capacity (A). Respiratory control ratio (State 3/State 4) was measured in isolated kidney mitochondria with glutamate and malate (B). Control level is 100%. (C) Renal ATP was measured in freshly isolated tissue by luciferase-based luminescent assay. 72 Results are mean±SEM. *P<0.01 vs Sham, **P<0.01 vs Angiotensin II (n=5).
The following respiration medium was used (in mM): 125 mM KCl, 10 mM MOPS (pH 7.2), 2 mM MgCl2, 2 mM KH2PO4, 10 mM NaCl, 1 mM EGTA, 0.7 mM CaCl2, 10 mM glutamate and 2 mM malate. […] Respiratory control ratio was calculated as the rate ratio State 3 to State 4, where State 4 is the rate after ADP phosphorylation.

Water solubility = format: physicochemical
Excerpt: as §1

[3] = tested on: C57Bl/6J mice, Ang II-induced hypertension; experiment: Blood pressure in angiotensin II model of hypertension (tail-cuff and telemetry); format: in vivo, mouse
Excerpt: FIGS. 10A-D show the effect of mito2HOBA on angiotensin II-induced hypertension and accumulation of mitochondrial isoLGs protein adducts. (A) Blood pressure tail-cuff measurements in male Sham or angiotensin II-infused mice supplied with mito2HOBA in drinking water (0.1 g/L) or equimolar amount of untargeted analog 2HOBA (0.17 mmol/L). (B) Telemetry studies of blood pressure in angiotensin II-infused mice supplied with mito2HOBA or plain water as a vehicle. (C) Representative LC/MS/MS chromatograms of isoLG-Lysyl-Lactam adduct; (D) isoLG-Lys-Lactam levels in kidney mitochondria isolated from Sham or angiotensin II-infused mice supplied with mito2HOBA. Results are mean±SEM. *P<0.01 vs Sham, **P<0.01 vs Ang II (n=8).
Hypertension was induced by angiotensin II ([…]) as described previously. To test the therapeutic potential of scavenging of mitochondrial isoLGs, wild-type C57B1/6J male and female mice (Jackson Labs) received saline or angiotensin II minipump placement, and provided with the plain water (vehicle) or mito2HOBA in the drinking water (0.1 g/liter). Blood pressure was monitored by the telemetry and tail-cuff measurements as previously described. The Vanderbilt Institutional Animal Care and Use Committee approved the procedures (Protocol M1700207). Simple randomization was used to select animals for sham, angiotensin II or mito2HOBA groups for equal chance of being allocated to treatment groups.
To test a functional role of mitochondrial isoLGs in hypertension, we used an Ang II model of hypertension, and monitored blood pressure by tail-cuff (FIG. 10A) and telemetry (FIG. 10B). […] Infusion of wild-type C57B1/6J mice with Ang II (0.7 mg/kg/day) increased systolic blood pressure to 162 mm Hg.

[4] = Tolerability in animal experiments; format: in vivo; settings: doses from 0.1-0.3 g/L in drinking water
Excerpt: as §1

[5] = Reaction with the IsoLG analog 4-oxopentanal; format: physicochemical; settings: % of 2HOBA itself
Excerpt: In order to confirm the IsoLG scavenging properties of mito2HOBA, the present inventors studied its reaction with the IsoLG analog 4-oxopentanal as the present inventors described previously. Mito2HOBA was highly reactive with 4-oxopentanal with a reaction rate constant that was about 50% of 2HOBA itself (Supplemental FIG. 1S). […] The overall rate of IsoLG scavenging in physiological conditions depends both on the rate constant and the local concentration of the scavenger (V=k*[mito2HOBA]*[IsoLG]). […] This will result in low level of mito2HOBA in cytoplasm but high mitochondrial accumulation leading to specific scavenging of IsoLG in mitochondria (FIG. 3).

[6] = tested on: kidney (renal cortex and medulla); experiment: Kidney histological analyses in LPS model
Protocol: Three months old C57BL/6J mice (25-28 g) were supplemented with mito2HOBA (drinking water, 0.1 g/L) for 72 hours prior to LPS injection (25 μg/g). […] (C) Histopathological scores of renal injuries as described in methods section. […] Data are mean±STD *P<0.01 vs LPS (n=6), *P<0.01 vs LPS (n=10).
FIGS. 6A-H show histological analysis of cellular injury in kidneys of control, mito2HOBA supplemented, LPS-injected and LPS+mito2HOBA-treated mice. Representative sections from control mice show normal glomeruli (g), proximal tubules (P), and distal tubules (*) in the cortex (A) and medulla (B).
Kidneys were harvested from mice and placed immediately in 10% formalin. Following fixation, kidneys were washed with saline, placed in 70% ethanol, and processed in the following sequence: 70% ethanol; 80% ethanol; 95% ethanol; 100% ethanol; 100% xylene. Then kidneys were embedded in POLY/Fin paraffin (ThermoFisher). Five-μm sections were cut using a Leitz 1512 microtome and were mounted on glass slides. Sections were stained with hematoxylin and eosin and were viewed using an Olympus IX70 microscope. Images were captured with a Jenoptix Progress C12 digital camera. Histopathological scores of kidneys were measured as follows: (0) No tubular injury; (1) <10% tubules injured; (2) 10-25% tubules injured; (3) 25-50% tubules injured; (4) 50-75% tubules injured; (5) >75% tubules injured.

complex I/complex II = settings: kidney mitochondria after LPS treatment, mito2HOBA supplementation
Protocol: Three months old C57BL/6J mice (25-28 g) were supplemented with mito2HOBA (drinking water, 0.1 g/L) for 72 hours prior to LPS injection (25 μg/g). Complex I/Complex II activity ratio is expressed as a % compared to Control (100%). […] Data are mean±STD *P<0.01 vs LPS (n=6), *P<0.01 vs LPS (n=10).
Forty C57BL/6J 3-month old mice were equally divided in four groups: Sham (Control), LPS-injected mice (LPS), mice supplemented with mito2HOBA (0.1 g/Liter) in the drinking water (mito2HOBA), and LPS-injected mice pretreated with mito2HOBA in the drinking water (LPS+mito2HOBA). […]
Mitochondrial complex I and complex II activities were evaluated after 24 hours of LPS injection as described above. […]
Respiration rates were measured using Fluorescence Lifetime Micro Oxygen Monitoring System (Instech Laboratories, Inc.). […] OXPHOS specific enzyme activities in submitochondrial particles (SMP) were measured using a Varian Cary 300 Bio UV/Vis spectrophotometer with temperature controlling cell holder. […] Complex I activity was monitored in triplicate samples as the reduction of 10 μM decylubiquinone at 272 nm by 15 μg of mitochondrial protein with 40 μM NADH. […] Complex II activity was measured by monitoring the absorbance at 600 nm during the oxidation of 50 μM DCPIP as artificial electron acceptor by 65 μM ubiquinone in presence of 2 mM KCN and 2 μg/ml rotenone and antimycin A.

[7] = kidney and heart mitochondria, drinking water 0.1 g/L for 5-days
[8] = LPS plus mito2HOBA vs LPS alone

NCc1ccc(OCCCC[P+](c2ccccc2)(c2ccccc2)c2ccccc2)cc1O [mito2HOBA]
increase of animal survival ([1]; 96 hours post-injection of LPS 25 μg/g, mito2HOBA 0.1 g/L drinking water): 3 fold | reduction of animal immediate and extended mortality ([1]; LPS model of sepsis, mito2HOBA supplementation): 3 fold | renal mitochondrial Ca2+-retention capacity (mPTP): completely prevented decline | level in the mitochondrial fraction [2, 7]: μM levels | share accumulated in the mitochondrial fraction [2, 7]: 80% | accumulation in the mitochondria of multiple organs ([2]; kidney, heart and liver): robustly accumulated | mitochondrial respiration supported by glutamate plus malate (kidney mitochondria): preserved | water solubility (Water solubility): water-soluble | systolic blood pressure ([3]; Ang II 0.7 mg/kg/day, mito2HOBA 0.1 g/L drinking water, tail-cuff and telemetry (Ang II alone 162)): 140 mm Hg | blood pressure in control mice ([3]; mito2HOBA alone, no Ang II): did not affect | tolerability [4]: well tolerated | reaction rate constant with 4-oxopentanal relative to 2HOBA [5]: about 50% | renal cortex injury ([6]; LPS plus mito2HOBA): the cortex appeared normal | histopathological scores of renal injuries [6, 8]: significant reduction in cellular injury | renal medulla injury [6, 8]: the extent and degree of injury was less | kidney histology, mito2HOBA alone ([6]; mice supplemented with mito2HOBA without LPS): appeared normal | complex I/complex II activity ratio (complex I/complex II): completely preserved
